# Assay results: patent US7396837B2, “Antitumoral analogs of lamellarins” (Pharma Mar, S.A.U., priority 2002, dated 2008)
# Like-named read-outs stand apart in the source and are kept apart here.
# Legend:
# Type in all cases: cell-based
# K-562 = assay: SRB colorimetric cell growth inhibition assay, K-562; conditions: Homo sapiens
# Summary of the method: (§1)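 Cells are kept under uninterrupted exposure to compound. Staining with sulforhodamine B then measures cell growth and viability. Triplicate data give mean ± SD, from which growth inhibition, total growth inhibition and lethal concentration values follow.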
# A-549 = assay: SRB colorimetric cell growth inhibition assay, A-549; conditions: Homo sapiens
# Summary of the method: as §1
# SK-MEL-28 = assay: SRB colorimetric cell growth inhibition assay, SK-MEL-28; conditions: Homo sapiens
# Summary of the method: as §1
# HT-29 = assay: SRB colorimetric cell growth inhibition assay, HT-29; conditions: Homo sapiens
# Summary of the method: as §1
# LoVo = assay: SRB colorimetric cell growth inhibition assay, LoVo; conditions: Homo sapiens; for CC50: read-out: LC50 LOVO; for GI50: read-out: GI50 LOVO; for IC (TGI): read-out: TGI LOVO
# Summary of the method: as §1
# LoVo-Dox = assay: SRB colorimetric cell growth inhibition assay, LoVo-Dox (MDR); conditions: Homo sapiens; for GI50: read-out: GI50 LOVO-DOX; for CC50: read-out: LC50 LOVO-DOX; for IC (TGI): read-out: TGI LOVO-DOX
# Summary of the method: as §1
# DU-145 = assay: SRB colorimetric cell growth inhibition assay, DU-145; conditions: Homo sapiens
# Summary of the method: as §1
# LNCaP = assay: SRB colorimetric cell growth inhibition assay, LNCaP; conditions: Homo sapiens, LNCaP; for GI50: read-out: GI50 LN-caP; for CC50: read-out: LC50 LN-caP; for IC (TGI): read-out: TGI LN-caP
# Summary of the method: as §1
# SK-BR-3 = assay: SRB colorimetric cell growth inhibition assay, SK-BR-3; conditions: Homo sapiens
# Summary of the method: as §1
# IGROV = assay: SRB colorimetric cell growth inhibition assay, IGROV; conditions: Homo sapiens, IGROV; for CC50: read-out: LC50 IGROV; for GI50: read-out: GI50 IGROV; for IC (TGI): read-out: TGI IGROV
# Summary of the method: as §1
# IGROV-ET = assay: SRB colorimetric cell growth inhibition assay, IGROV-ET (ET-743 resistant); conditions: Homo sapiens; for GI50: read-out: GI50 IGROV-ET; for CC50: read-out: LC50 IGROV-ET; for IC (TGI): read-out: TGI IGROV-ET
# Summary of the method: as §1
# PANC-1 = assay: SRB colorimetric cell growth inhibition assay, PANC-1; conditions: Homo sapiens
# Summary of the method: as §1
# SKOV-3 = assay: SRB colorimetric cell growth inhibition assay, SKOV-3; conditions: Homo sapiens
# Summary of the method: (§2)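 Sulforhodamine B colorimetric assay of cell growth and viability, mean ± SD of triplicate wells. Parameters derived: GI (growth inhibition), TGI (total growth inhibition, cytostatic) and LC (cell killing, cytotoxic).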
# [1] = SRB colorimetric cell growth inhibition assay, H-MEC-1; conditions: human; H-MEC-1; cell killing (cytotoxic effect); read-out: LC50 H-MEC-1
# Summary of the method: as §2
# H-MEC-1 = assay: as above; conditions: Homo sapiens
# Summary of the method: as §2
smiles,measurement,setting,value
COc1cc(-c2c3n(c4c(=O)oc5cc(OC(=O)[C@H](Cc6c[nH]c7ccccc67)NC(=O)OC(C)(C)C)c(OC)cc5c24)CCc2cc(OC(=O)[C@H](Cc4c[nH]c5ccccc45)NC(=O)OC(C)(C)C)c(OC)cc2-3)ccc1OC(=O)[C@H](Cc1c[nH]c2ccccc12)NC(=O)OC(C)(C)C [Compound 29],GI50,"K-562; K562, K-562, GI=growth inhibition, read-out: GI50 K-562",481 nM
same,CC50,"K-562; K562, K-562, LC=cell killing (cytotoxic effect), read-out: LC50 K-562",7.35 µM
same,IC (TGI),"K-562; K562, K-562, TGI=total growth inhibition (cytostatic effect), read-out: TGI K-562",3.46 µM
same,GI50,"A-549; A549, A-549, GI=growth inhibition, read-out: GI50 A-549",1730 nM
same,CC50,"A-549; A549, A-549, LC=cell killing (cytotoxic effect), read-out: LC50 A-549",7.35 µM
same,IC (TGI),"A-549; A549, A-549, TGI=total growth inhibition (cytostatic effect), read-out: TGI A-549",3.63 µM
same,GI50,"SK-MEL-28; SK-MEL-28, MEL-28, GI=growth inhibition, read-out: GI50 MEL-28",1550 nM
same,CC50,"SK-MEL-28; SK-MEL-28, MEL-28, cell killing (cytotoxic effect), read-out: LC50 MEL-28",6.45 µM
same,IC (TGI),"SK-MEL-28; SK-MEL-28, MEL-28, total growth inhibition (cytostatic effect), read-out: TGI MEL-28",3.17 µM
same,CC50,"HT-29; HT-29, HT-29, LC=cell killing (cytotoxic effect), read-out: LC50 HT-29",7.35 µM
same,GI50,"HT-29; HT-29, GI=growth inhibition, read-out: GI50 HT-29",1.84 µM
same,IC (TGI),"HT-29; HT-29, TGI=total growth inhibition (cytostatic effect), read-out: TGI HT-29",5.08 µM
same,CC50,"LoVo; LoVo, LC=cell killing (cytotoxic effect)",7.35 µM
same,GI50,"LoVo; LOVO, GI=growth inhibition",2910 nM
same,IC (TGI),"LoVo; LOVO, TGI=total growth inhibition (cytostatic effect)",7.35 µM
same,GI50,"LoVo-Dox; LOVO-DOX, GI=growth inhibition",7.35 µM
same,CC50,"LoVo-Dox; LOVO-DOX, LC=cell killing (cytotoxic effect)",7.35 µM
same,IC (TGI),"LoVo-Dox; LOVO-DOX, TGI=total growth inhibition (cytostatic effect)",7.35 µM
same,CC50,"DU-145; DU-145, DU-145, cell killing (cytotoxic effect), read-out: LC50 DU-145",3.9 µM
same,GI50,"DU-145; DU-145, GI=growth inhibition, read-out: GI50 DU-145",198 nM
same,IC (TGI),"DU-145; DU-145, total growth inhibition (cytostatic effect), read-out: TGI DU-145",0.44 µM
same,GI50,"LNCaP; LN-caP, GI=growth inhibition",70.4 nM
same,CC50,"LNCaP; LN-caP, cell killing (cytotoxic effect)",396 nM
same,IC (TGI),"LNCaP; LN-caP, total growth inhibition (cytostatic effect)",0.169 µM
same,CC50,"SK-BR-3; SK-BR-3, SK-BR-3, cell killing (cytotoxic effect), read-out: LC50 SK-BR-3",7.03 µM
same,GI50,"SK-BR-3; SK-BR-3, GI=growth inhibition, read-out: GI50 SK-BR-3",242 nM
same,IC (TGI),"SK-BR-3; SK-BR-3, total growth inhibition (cytostatic effect), read-out: TGI SK-BR-3",0.525 µM
same,CC50,IGROV; cell killing (cytotoxic effect),7.35 µM
same,GI50,IGROV; GI=growth inhibition,367 nM
same,IC (TGI),IGROV; total growth inhibition (cytostatic effect),1.66 µM
same,GI50,"IGROV-ET; IGROV-ET, GI=growth inhibition",5.65 µM
same,CC50,"IGROV-ET; IGROV-ET, cell killing (cytotoxic effect)",7.35 µM
same,IC (TGI),"IGROV-ET; IGROV-ET, total growth inhibition (cytostatic effect)",7.35 µM
same,CC50,"PANC-1; PANC-1, PANC-1, LC=cell killing (cytotoxic effect), read-out: LC50 PANC-1",7.35 µM
same,IC (TGI),"PANC-1; PANC-1, PANC-1, TGI=total growth inhibition (cytostatic effect), read-out: TGI PANC-1",4.23 µM
same,GI50,"PANC-1; PANC-1, GI=growth inhibition, read-out: GI50 PANC-1",978 nM
same,GI50,"SKOV-3; SK-OV-3, SKOV-3, GI=growth inhibition, read-out: GI50 SKOV-3",1790 nM
same,LC50 (concentration causing 50% net cell killing),"SKOV-3; SK-OV-3, SKOV-3, cell killing (cytotoxic effect), read-out: LC50 SKOV-3",7.35 µM
same,IC (TGI),"SKOV-3; SK-OV-3, SKOV-3, total growth inhibition (cytostatic effect), read-out: TGI SKOV-3",3.9 µM
same,LC50 (concentration giving 50% net cell killing),[1],290 nM
same,GI50,"H-MEC-1; HMEC-1, H-MEC-1, GI=growth inhibition, read-out: GI50 H-MEC-1",24.2 nM
same,IC (TGI),"H-MEC-1; HMEC-1, H-MEC-1, total growth inhibition (cytostatic effect), read-out: TGI H-MEC-1",0.0526 µM
COc1cc(-c2c3c4cc(OC)c(O)cc4oc(=O)c3n3ccc4c(O)c(OC)c(OC)cc4c23)ccc1O [Compound 2],GI50,"K-562; K562, read-out: GI50 K-562",117 nM
same,CC50,"K-562; K562, read-out: LC50 K-562",18.9 µM
same,IC (TGI),"K-562; K562, read-out: TGI K-562",2.25 µM
same,GI50,"A-549; A549, read-out: GI50 A-549",674 nM
same,CC50,"A-549; A549, read-out: LC50 A-549",18.9 µM
same,IC (TGI),"A-549; A549, read-out: TGI A-549",18.9 µM
same,GI50,"SK-MEL-28; SK-MEL-28, read-out: GI50 MEL-28",302 nM
same,CC50,"SK-MEL-28; SK-MEL-28, read-out: LC50 MEL-28",≥ 18.9 µM
same,IC (TGI),"SK-MEL-28; SK-MEL-28, read-out: TGI MEL-28",3.66 µM
same,GI50,"HT-29; HT-29, read-out: GI50 HT-29",8.31 µM
same,CC50,"HT-29; HT-29, read-out: LC50 HT-29",18.9 µM
same,IC (TGI),"HT-29; HT-29, read-out: TGI HT-29",18.9 µM
same,GI50,LoVo; LoVo,398 nM
same,CC50,LoVo; LoVo,16 µM
same,IC (TGI),LoVo; LoVo,3.02 µM
same,GI50,LoVo-Dox,0.604 µM
same,CC50,LoVo-Dox,18.9 µM
same,IC (TGI),LoVo-Dox,3.83 µM
same,GI50,"DU-145; DU-145, read-out: GI50 DU-145",64 nM
same,CC50,"DU-145; DU-145, read-out: LC50 DU-145",≥ 18.9 µM
same,IC (TGI),"DU-145; DU-145, read-out: TGI DU-145",0.14 µM
same,GI50,LNCaP,72.7 nM
same,CC50,LNCaP,1440 nM
same,IC (TGI),LNCaP,0.398 µM
same,GI50,"SK-BR-3; SK-BR-3, read-out: GI50 SK-BR-3",314 nM
same,CC50,"SK-BR-3; SK-BR-3, read-out: LC50 SK-BR-3",≥ 18.8 µM
same,IC (TGI),"SK-BR-3; SK-BR-3, read-out: TGI SK-BR-3",2.36 µM
same,GI50,IGROV,880 nM
same,CC50,IGROV,≥ 18.9 µM
same,IC (TGI),IGROV,5.17 µM
same,GI50,IGROV-ET,1.98 µM
same,CC50,IGROV-ET,≥ 18.9 µM
same,IC (TGI),IGROV-ET,8.12 µM
same,GI50,"PANC-1; PANC-1, read-out: GI50 PANC-1",988 nM
same,CC50,"PANC-1; PANC-1, read-out: LC50 PANC-1",18.9 µM
same,IC (TGI),"PANC-1; PANC-1, read-out: TGI PANC-1",6.97 µM
same,GI50,"SKOV-3; SK-OV-3, read-out: GI50 SKOV-3",140 nM
same,LC50 (concentration causing 50% net cell killing),"SKOV-3; SK-OV-3, read-out: LC50 SKOV-3",≥ 18.9 µM
same,IC (TGI),"SKOV-3; SK-OV-3, read-out: TGI SKOV-3",5.1 µM
same,LC50 (concentration giving 50% net cell killing),[1],≥ 18900 nM
same,GI50,"H-MEC-1; HMEC-1, read-out: GI50 H-MEC-1",665 nM
same,IC (TGI),"H-MEC-1; HMEC-1, read-out: TGI H-MEC-1",18.9 µM
